This is an account of results in patent US10011842B2, “Escherichia coli cell line with thyA knockout, folA knockout, and one or both of folP knockout, and folK knockout” (priority 2013, dated 2018).

Assay [1] has as its system Plasmodium falciparum parasites. In words: standard hypoxanthine incorporation method in Plasmodium falciparum parasites. The conditions noted are these: read-out: IC50 (50% inhibitory concentration). It counts as cell-based.
The subject of assay [2] is PEcΔTFP transformed with plasmids containing Pfdhfr-ts (WT) and Pfhppk-dhps (WT). Put plainly: growth inhibition of PEcΔTFP surrogate host (antifolate drug screening). The format is cell-based, Escherichia coli BL21(DE3). Conditions: PEcΔTFP with wild type Pfdhfr-ts and Pfhppk-dhps, minimal media with L-arabinose, 37 degrees Celsius, 16 hours. How it is done: (§1) Pyrimethamine and sulfathiazole were chosen for this experiment. The 50% inhibitory concentrations (IC50) of each drug were calculated from dose-response growth curves for PEcΔTFP and PEcΔTFPK surrogates transformed with plasmids containing wild type Pfdhfr-ts and Pfhppk-dhps. Cells were incubated in various concentrations of drug in minimal media supplemented with L-arabinose as an inducer and antibiotics for selection of complementing plasmids in 96-well plates at 37 degrees Celsius for 16 hours.

In assay [3] the test system is PEcΔTFPK transformed with plasmids containing Pfdhfr-ts (WT) and Pfhppk-dhps (WT). In words: growth inhibition of PEcΔTFPK surrogate host (antifolate drug screening). The format is cell-based, Escherichia coli BL21(DE3). The conditions noted are these: PEcΔTFPK with wild type Pfdhfr-ts and Pfhppk-dhps, minimal media with L-arabinose, 37 degrees Celsius, 16 hours. As for the experimental part: as §1

As for `CCc1nc(N)nc(N)c1-c1ccc(Cl)cc1` [pyrimethamine], the IC50 in assay [1] came out at 0.041 ± 0.006 µM.

`Nc1ccc(S(=O)(=O)Nc2nccs2)cc1` [sulfathiazole]: the IC50 in assay [1] stood at 135.4 ± 0.49 µM. Moreover, the “IC50 from dose-response growth curves compared with the standard method” value in assay [2] and in assay [3] was “very similar to values from the standard hypoxanthine incorporation method” in each case.
